From the NIST ThermoML archive (doi:10.1021/acs.jced.7b00378)

Tests used:
[1] = refractive index (Na D-line) (dimensionless); wn = mass fraction of the nth substance listed; settings: 100 kPa, Liquid, Standard Abbe refractometry
[2] = wn = mass fraction of the nth substance listed; settings: 100 kPa, Liquid, Vibrating tube method

O=S(=O)([O-])[O-].[Mg+2] [magnesium sulfate] + O
Settings | mass density, [2] [kg/m3] | refractive index, [1]
288.15 K, w1 = 0.2409 | 1274.47 | 1.384
298.15 K, w1 = 0.2768 | 1302.41 | 1.3895
308.15 K, w1 = 0.2974 | 1325.91 | 1.3902
